# Measured values reported in patent US12371428B2 (Exelixis, Inc., priority 2019, dated 2025).
# Where a name gives a salt, the structure may show the parent alone. Read-outs that look alike come from different tables or passages of the source.
# Columns and labels:
# Assay type in all cases: biochemical
# [1] = molecular target: Human KDR (residues 790-1356) (Homo sapiens (Human), UniProt P35968); test: Human KDR kinase assay, HTRF KinEase (Example B-2)
# How it was run: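 Human KDR residues 790-1356 (0.1 ng/well) in buffer with 5 mM MgCl2, 1 mM MnCl2, 1 mM DTT, biotinylated peptide substrate, ATP at Km (4.0 μM), 3% DMSO, 10 compound concentrations; 40 min, room temperature. EDTA stop, streptavidin-XL665/Eu-TK antibody HTRF read 665/620 nm; 4-parameter IC50.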
# [2] = molecular target: Human MER (residues 528-999) (Homo sapiens (Human), UniProt Q12866); test: Human Mer kinase assay, HTRF KinEase (Example C-2)
# Sequence of Human MER (residues 528-999) (Q12866 528-999): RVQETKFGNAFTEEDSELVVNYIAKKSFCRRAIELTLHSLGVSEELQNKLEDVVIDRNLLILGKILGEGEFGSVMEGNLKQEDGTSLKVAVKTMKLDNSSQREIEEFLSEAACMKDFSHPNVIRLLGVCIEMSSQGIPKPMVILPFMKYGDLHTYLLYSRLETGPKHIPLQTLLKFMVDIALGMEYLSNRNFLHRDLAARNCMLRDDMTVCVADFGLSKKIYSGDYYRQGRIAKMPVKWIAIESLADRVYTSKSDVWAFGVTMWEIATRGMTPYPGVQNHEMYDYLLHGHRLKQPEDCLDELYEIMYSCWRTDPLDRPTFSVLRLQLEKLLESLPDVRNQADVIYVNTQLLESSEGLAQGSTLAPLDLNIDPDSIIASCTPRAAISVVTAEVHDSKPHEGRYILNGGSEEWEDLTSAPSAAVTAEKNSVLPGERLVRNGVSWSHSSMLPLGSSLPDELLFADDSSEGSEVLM
# How it was run: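 HTRF KinEase TK assay with MER 528-999 (1 ng/well) in enzymatic buffer plus 5 mM MgCl2 and 1 mM DTT, biotinylated peptide substrate and ATP at Km (40 μM), 3% DMSO final, 60 min at room temperature. Stopped with EDTA detection mix (SA-XL665, TK antibody-Eu3+), read at 665/620 nm after 60 min; IC50 from 10-point 4-parameter fit, normalized to DMSO and 1 μM reference.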
# [3] = molecular target: Human MET (residues 956-1390) (Homo sapiens (Human), UniProt P08581); test: Human Met kinase assay, HTRF KinEase (Example D-2); settings: read-out: c-Met IC50
# Sequence of Human MET (residues 956-1390) (P08581 956-1390): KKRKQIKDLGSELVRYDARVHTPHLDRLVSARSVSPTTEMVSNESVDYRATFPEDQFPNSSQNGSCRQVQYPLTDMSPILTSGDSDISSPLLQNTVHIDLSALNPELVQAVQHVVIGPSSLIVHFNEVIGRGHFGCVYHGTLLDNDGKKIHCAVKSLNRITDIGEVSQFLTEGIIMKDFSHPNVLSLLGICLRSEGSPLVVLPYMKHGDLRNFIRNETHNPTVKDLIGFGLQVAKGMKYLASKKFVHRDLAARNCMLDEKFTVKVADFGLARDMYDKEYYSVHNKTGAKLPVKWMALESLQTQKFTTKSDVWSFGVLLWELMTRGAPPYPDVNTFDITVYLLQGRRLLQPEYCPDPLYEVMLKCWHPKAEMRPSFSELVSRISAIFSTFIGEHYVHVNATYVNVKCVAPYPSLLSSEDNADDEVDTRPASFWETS
# How it was run: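 HTRF KinEase assay on MET residues 956-1390 (0.1 ng/well) in buffer with 5 mM MgCl2, 1 mM DTT and 1 mM MnCl2, with biotinylated peptide substrate, ATP at Km, 10 compound concentrations and 3% DMSO final, run 40 min at room temperature. The […] signal was normalized to DMSO and to 1 μM reference compound, and IC50 came from a 4-parameter logistic fit.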
# [4] = protocol of Example B-2 (other compounds)
# [5] = protocol of Example C-2 (other compounds)
# [6] = protocol of Example D-2 (other compounds)
# Sequence of Human KDR (residues 790-1356) (P35968 790-1356): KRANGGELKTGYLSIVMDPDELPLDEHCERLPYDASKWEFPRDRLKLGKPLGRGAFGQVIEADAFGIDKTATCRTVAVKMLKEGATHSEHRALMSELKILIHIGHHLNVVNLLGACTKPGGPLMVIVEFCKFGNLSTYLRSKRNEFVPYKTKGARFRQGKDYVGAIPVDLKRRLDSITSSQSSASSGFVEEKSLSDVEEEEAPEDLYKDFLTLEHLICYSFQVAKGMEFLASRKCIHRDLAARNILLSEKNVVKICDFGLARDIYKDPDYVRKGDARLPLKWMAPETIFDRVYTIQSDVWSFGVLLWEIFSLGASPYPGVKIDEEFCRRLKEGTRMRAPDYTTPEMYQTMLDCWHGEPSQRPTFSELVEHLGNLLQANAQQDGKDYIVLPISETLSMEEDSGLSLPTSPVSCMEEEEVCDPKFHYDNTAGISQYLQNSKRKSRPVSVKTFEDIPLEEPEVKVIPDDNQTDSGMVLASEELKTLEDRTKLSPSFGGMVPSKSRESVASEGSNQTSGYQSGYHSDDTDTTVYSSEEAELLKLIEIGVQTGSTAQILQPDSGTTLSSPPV
Compound,IC50 ([1]; protocol of Example B-2) [nM],IC50 ([2]; protocol of Example C-2) [nM],IC50 ([3]; protocol of Example D-2) [nM],"IC50 [1, 4] [nM]","IC50 [2, 5] [nM]","IC50 [3, 6] [nM]"
"COc1cc2nccc(Oc3ccc(NC(=O)c4cnc(C)c(-c5ccc(F)cc5)c4O)cc3F)c2nc1Br [Compound 142, N-[4-[(6-Bromo-7-methoxy-1,5-naphthyridin-4-yl)oxy]-3-fluorophenyl]-5-(4-fluorophenyl)-4-hydroxy-6-methylpyridine-3-carboxamide]",,,,< 100,< 100,< 100
"COc1cc2c(Oc3ccc(NC(=O)c4cn(C5CC5)c(C)c(-c5ccc(F)cc5)c4=O)cc3F)ccnc2cn1 [Compound 640, 1-cyclopropyl-N-[3-fluoro-4-[(6-methoxy-1,7-naphthyridin-4-yl)oxy]phenyl]-5-(4-fluorophenyl)-6-methyl-4-oxopyridine-3-carboxamide]",> 300,< 100,< 100,,,
"Cc1nc2c(Oc3ccc(NC(=O)c4cnc(C)c(-c5ccc(F)cc5)c4O)cc3)ccnc2cc1-c1cnn(C(F)F)c1 [Compound 617, N-[4-[[7-[1-(Difluoromethyl)pyrazol-4-yl]-6-methyl-1,5-naphthyridin-4-yl]oxy]phenyl]-5-(4-fluorophenyl)-4-hydroxy-6-methylpyridine-3-carboxamide hydrochloride]",100 to 300,< 100,< 100,,,
"COc1cc2nccc(Oc3ccc(NC(=O)c4cnc(C(C)(C)C)c(-c5ccc(F)cc5)c4O)cc3F)c2nc1OC [Compound 155, 6-tert-Butyl-N-[4-[(6,7-dimethoxy-1,5-naphthyridin-4-yl)oxy]-3-fluorophenyl]-5-(4-fluorophenyl)-4-hydroxypyridine-3-carboxamide]",,,,> 300,< 100,< 100
"COc1cc2nccc(Oc3ccc(NC(=O)c4c(C)nc(C)c(-c5ccc(F)cc5)c4O)cc3)c2nc1OC [Compound 173, N-[4-[(6,7-Dimethoxy-1,5-naphthyridin-4-yl)oxy]phenyl]-5-(4-fluorophenyl)-4-hydroxy-2,6-dimethylpyridine-3-carboxamide]",,,,< 100,< 100,< 100
"Cc1ncc(C(=O)Nc2ccc(Oc3ccnc4cc(C(F)(F)F)cnc34)c(F)c2)c(O)c1-c1ccc(F)cc1 [Compound 151, 5-(4-Fluorophenyl)-N-[3-fluoro-4-[[7-(trifluoromethyl)-1,5-naphthyridin-4-yl]oxy]phenyl]-4-hydroxy-6-methylpyridine-3-carboxamide]",,,,> 300,< 100,< 100
"Cc1nc2c(Oc3ccc(NC(=O)c4cnc(C)c(-c5ccc(F)cc5)c4O)cc3F)ccnc2cc1-c1cnn(C(F)F)c1 [Compound 615, N-[4-[[7-[1-(Difluoromethyl)pyrazol-4-yl]-6-methyl-1,5-naphthyridin-4-yl]oxy]-3-fluorophenyl]-5-(4-fluorophenyl)-4-hydroxy-6-methylpyridine-3-carboxamide hydrochloride]",< 100,< 100,< 100,,,
"CCn1cc(C(=O)Nc2ccc(Oc3ccnc4cc(OC)cnc34)cc2)c(=O)c(-c2ccc(F)cc2)c1 [Compound 169, 1-Ethyl-5-(4-fluorophenyl)-N-[4-[(7-methoxy-1,5-naphthyridin-4-yl)oxy]phenyl]-4-oxopyridine-3-carboxamide]",,,,> 300,< 100,< 100
"Cc1ncc(C(=O)Nc2ccc(Oc3ccnc4cc(-c5cnn(C(F)F)c5)cnc34)cc2)c(O)c1-c1ccc(F)cc1 [Compound 611, N-[4-[[7-[1-(Difluoromethyl)pyrazol-4-yl]-1,5-naphthyridin-4-yl]oxy]phenyl]-5-(4-fluorophenyl)-4-hydroxy-6-methylpyridine-3-carboxamide]",< 100,< 100,< 100,,,
"COc1nc2c(Oc3ccc(NC(=O)c4cn(C(C)C)c(C)c(-c5ccc(F)cc5)c4=O)cc3F)ccnc2cc1Br [Compound 132, N-[4-[(7-Bromo-6-methoxy-1,5-naphthyridin-4-yl)oxy]-3-fluorophenyl]-5-(4-fluorophenyl)-6-methyl-4-oxo-1-propan-2-ylpyridine-3-carboxamide]",,,,100 to 300,< 100,< 100
"COc1cc2nccc(Oc3ccc(NC(=O)c4cnc(C)c(-c5ccc(F)cc5)c4O)cc3F)c2nc1NS(C)(=O)=O [Compound 584, N-[3-Fluoro-4-[[6-(methanesulfonamido)-7-methoxy-1,5-naphthyridin-4-yl]oxy]phenyl]-5-(4-fluorophenyl)-4-hydroxy-6-methylpyridine-3-carboxamide]",< 100,< 100,< 100,,,
"Cc1ncc(C(=O)Nc2ccc(Oc3ccnc4cc(C(C)C)cnc34)cc2)c(O)c1-c1ccc(F)cc1 [Compound 594, 5-(4-Fluorophenyl)-4-hydroxy-6-methyl-N-[4-[(7-propan-2-yl-1,5-naphthyridin-4-yl)oxy]phenyl]pyridine-3-carboxamide]",> 300,< 100,< 100,,,

# Results, then the molecule that gave them:
IC50 ([1]; protocol of Example B-2) [nM],IC50 ([2]; protocol of Example C-2) [nM],IC50 ([3]; protocol of Example D-2) [nM],"IC50 [1, 4] [nM]","IC50 [2, 5] [nM]","IC50 [3, 6] [nM]",Compound
< 100,< 100,< 100,,,,"COc1cc2nccc(Oc3ccc(NC(=O)c4cnc(N)n(-c5ccc(F)cc5)c4=O)cc3F)c2nc1OC [Compound 565, 2-Amino-N-[4-[(6,7-dimethoxy-1,5-naphthyridin-4-yl)oxy]-3-fluorophenyl]-1-(4-fluorophenyl)-6-oxopyrimidine-5-carboxamide]"
100 to 300,< 100,< 100,,,,"CNC(=O)c1cnc2c(Oc3ccc(NC(=O)c4cnc(C)c(-c5ccc(F)cc5)c4O)cc3F)ccnc2c1 [Compound 578, 8-[2-Fluoro-4-[[5-(4-fluorophenyl)-4-hydroxy-6-methylpyridine-3-carbonyl]amino]phenoxy]-N-methyl-1,5-naphthyridine-3-carboxamide]"
100 to 300,< 100,< 100,,,,"Cc1nc(C)c(-c2ccc(F)cc2)c(O)c1C(=O)Nc1ccc(Oc2ccnc3cc(C(C)C)cnc23)cc1 [Compound 598, 5-(4-Fluorophenyl)-4-hydroxy-2,6-dimethyl-N-[4-[(7-propan-2-yl-1,5-naphthyridin-4-yl)oxy]phenyl]pyridine-3-carboxamide]"
> 300,< 100,< 100,,,,"Cc1ncc(C(=O)Nc2ccc(Oc3ccnc4cc(C(C)C)cnc34)c(F)c2)c(O)c1-c1ccc(F)cc1 [Compound 596, 5-(4-Fluorophenyl)-N-[3-fluoro-4-[(7-propan-2-yl-1,5-naphthyridin-4-yl)oxy]phenyl]-4-hydroxy-6-methylpyridine-3-carboxamide]"
> 300,< 100,< 100,,,,"CNc1c(-c2ccc(F)cc2)c(=O)c(C(=O)Nc2ccc(Oc3ccnc4cc(OC)cnc34)c(F)c2)cn1C [Compound 585, N-[3-Fluoro-4-[(7-methoxy-1,5-naphthyridin-4-yl)oxy]phenyl]-5-(4-fluorophenyl)-1-methyl-6-(methylamino)-4-oxopyridine-3-carboxamide]"
,,,> 300,< 100,< 100,"COc1cc2nccc(Oc3ccc(NC(=O)c4cn(CCN5CCOCC5)cc(-c5ccc(F)cc5)c4=O)cc3F)c2nc1OC [Compound 157, N-[4-[(6,7-Dimethoxy-1,5-naphthyridin-4-yl)oxy]-3-fluorophenyl]-5-(4-fluorophenyl)-1-(2-morpholin-4-ylethyl)-4-oxopyridine-3-carboxamide]"
,,,< 100,< 100,< 100,"COc1cnc2c(Oc3ccc(NC(=O)c4cncc(-c5ccc(F)cc5)c4O)cc3F)ccnc2c1 [Compound 120, N-[3-Fluoro-4-[(7-methoxy-1,5-naphthyridin-4-yl)oxy]phenyl]-5-(4-fluorophenyl)-4-hydroxypyridine-3-carboxamide]"
,,,< 100,< 100,< 100,"COc1cc2nccc(Oc3ccc(NC(=O)c4cn(C(C)C)cc(-c5ccc(F)cc5)c4=O)cc3)c2nc1OC [Compound 122, N-[4-[(6,7-Dimethoxy-1,5-naphthyridin-4-yl)oxy]phenyl]-5-(4-fluorophenyl)-4-oxo-1-propan-2-ylpyridine-3-carboxamide]"
,,,< 100,< 100,< 100,"COc1cnc2c(Oc3ccc(NC(=O)c4cncc(-c5ccc(F)cc5)c4O)cc3)ccnc2c1 [Compound 146, 5-(4-Fluorophenyl)-4-hydroxy-N-[4-[(7-methoxy-1,5-naphthyridin-4-yl)oxy]phenyl]pyridine-3-carboxamide]"
,,,< 100,< 100,< 100,"COc1nc2c(Oc3ccc(NC(=O)c4cnc(C)c(-c5ccc(F)cc5)c4O)cc3F)ccnc2cc1Br [Compound 130, N-[4-[(7-Bromo-6-methoxy-1,5-naphthyridin-4-yl)oxy]-3-fluorophenyl]-5-(4-fluorophenyl)-4-hydroxy-6-methylpyridine-3-carboxamide]"
